Article PMC6424996, “Effect of peptide-conjugated nanoparticles on cell lines” (Progress in Biomaterials, 2019)
Several values for one entry are separate records, joined by “and”; a condition that tells them apart may be missing. Equal values may be shown once. Where a SMILES comes first, the peptide text is derived from it.

Key:
Assay type in all cases: cell-based
[1] = tested on: HT-29 (Colon carcinoma) cells; test: Screening of cytotoxic activity of peptides by MTT assay on HT-29 cells; settings: for % inhibition (peptide screening): HT-29 cancerous cells, MTT, Fig. 1
Method: Different concentrations of the peptides (1 μL, 3 μL, 5 L, 10 μL, 20 μL) were used to treat the cancerous and normal cells consecutively (Inkielewicz-Stepniak et al. [2014]). The percentage inhibition was calculated.

[2] = tested on: NIH3T3 (Mouse embryo fibroblast) cells; test: Cytotoxicity on normal NIH3T3 cells (MTT assay)
Method: Above-mentioned peptides (P1, P2, P3, P4, and P5) obtained from other sources were screened for cytotoxicity by MTT assay on NIH3T3 (Mouse embryo fibroblast) cells (normal) and HT-29 (Colon carcinoma) cells (cancerous) by MTT assay. Different concentrations of the peptides (1 μL, 3 μL, […], 10 μL, 20 μL) were used to treat the cancerous and normal cells consecutively (Inkielewicz-Stepniak et al. [2014]). The percentage inhibition was calculated.

HT-29 cells = test: PI/AO staining for dead/live cells, HT-29; settings: HT-29, 1 µg/mL, 24 h, Figs. 6, 8
Method: (§1) HT-29 and MDA MB-231 cells were plated at a density of 1 × 10^6 cells/mL in 6-well tissue culture plates. They were treated with 1 µg/mL each of AgNP, AuNP, P1, P1–AgNP and P1–AuNP conjugated samples and were incubated in at 37 °C in 5% CO2 for 24 h. The cells were then harvested and washed twice using PBS after centrifugation at 2000 rpm for 5 min. An equal volume (10 µg/mL) of fluorescent dyes, propidium iodide (PI)/acridine orange (AO) was added to the cellular pellet. These freshly stained cells were observed under an inverted fluorescent microscope within 30 min (Banerjee and Ravishankar [2017]).
(§2) The nucleic acid-binding dyes propidium iodide (PI) and acridine orange (AO) help us to detect the dead cells and live cells under the microscope. AO permeates both dead and live cells; thus, it stains all nucleated cells to generate green fluorescence, whereas PI identifies the dead cells only and fluoresce red. The treated cancer cells were both stained with PI and AO equally, and were observed under fluorescence microscope. The results are obtained on swapping of the images to have an apparent understanding of the drug effects (Hajrezaie et al [2015]; Hajiaghaalipour et al [2015]).

MDA MB-231 cells = test: PI/AO staining for dead/live cells, MDA MB-231; settings: MDA MB-231, 1 µg/mL, 24 h, Figs. 7, 9
Method: as §1, §2

[3] = tested on: MDA MB-231 (Breast cancer) cells; test: MTT assay of nanoparticles, P1 and conjugates on MDA MB-231; settings: for % inhibition: MTT, 24 h exposure, 5000 cells/well, 570 nm, triplicates
Method: (§3) Cell lines were acquired from NCCS—National Centre for Cell Science, Pune, India. The HT-29 (Colon carcinoma) and MDA MB-231 (Breast cancer) cells were plated into 25-mm^2 T-flasks after thawing them at 37 °C in a water bath for few minutes. The thawed cells were transferred in a centrifuge tube and centrifuged for 3 min at 2000 rpm/min. The cells were, thus, collected discarding the supernatant and mixed well in Dulbecco’s modified Eagle’s medium (DMEM) solution with 12% fetal bovine serum, and antibiotics (streptopenicillin and amphotericin B solution, Sigma). Later, they were plated in 25 mm^2 in the same DMEM solution, individually. The T-flasks containing the cells were incubated for 24 h in humidified environment with 5% CO2. These cells after 24 h were washed with phosphate buffer saline (PBS). The medium was regularly changed for the cells to reach 50% confluence (Hajiaghaalipour et al [2015]). To check the viability of cells, MTT assay was carried out and 96-well plates were used to seed the cell lines of interest at 5000 cells/well and incubated overnight at 37 °C in an incubator with 5% CO2. After incubation, the cells were treated with different concentrations (1, 5, 10 μg/mL) of P1, AgNPs, AuNPs, P1–AgNP and P1–AuNP conjugates. The plates along with the treated cells were again incubated for 24 h at the same condition. The stored stock of MTT solution was added to the control and treated cell line samples, and again incubated at 37 °C for 2–3 h. After incubation, the media were carefully removed from the wells and mixed with solubilizing buffer. A purple color solution was visible at this stage. The control solution (without incorporation of nanoparticles/pure incubated cells) and treated samples were again incubated for an hour at 37 °C to ensure that the formazan precipitate was dissolved. The measurement of MTT assay was analyzed with Elisa Reader (Thermo Scientific, Multiskan Spectrum) at 570 nm (Inkielewicz-Stepniak et al [2014]). Percentage inhibition of cells was calculated according to the following equation: Cytotoxicity(%)=(experimentalabsorbance570nmofexposedcells/absorbance570nmofunexposedcells)×100.
(§4) All experiments were done in triplicates and the results were represented as mean ± SEM. The experimental data were read by two-way analysis of variance (ANNOVA). Differences were considered significant at p < 0.05. The IC-50 value was calculated using Microsoft Excel 2007 software (logarithmic transformation of X values and nonlinear regression sigmoidal dose–response analysis with variable slope—with bottom and top constraints set at 0 and 100, resp.).

[4] = tested on: HT-29 (Colon carcinoma) cells; test: MTT assay of nanoparticles, P1 and conjugates on HT-29; settings: 24 h exposure, 5000 cells/well, 570 nm, triplicates
Method: as §3, with “The stored stock of MTT solution was added to the control and treated cell line samples, and again incubated at 37 °C for 2–3 h. After incubation, the media were carefully removed from the wells and mixed with solubilizing buffer. A purple color solution was visible at this stage. The control solution (without incorporation of nanoparticles/pure incubated cells) and treated samples were again incubated for an hour at 37 °C to ensure that the formazan precipitate was dissolved.” left out
as §4, with “Differences were considered significant at p < 0.05.” left out

(U^BF)4-OMe [Peptide P2]
% inhibition (peptide screening) ([1]; lowest concentration 1 µg/mL): 15.93%

Boc-P-A-OH [Peptide P3]
% inhibition (peptide screening) ([1]; lowest concentration 1 µg/mL): 9.12%

Boc-βGly-βGly-OMe [Peptide P5]
% inhibition (peptide screening) ([1]; 5 µg/mL): around 20%

Boc-P-U-OH [Peptide P4]
% inhibition (peptide screening) ([1]; 5 µg/mL): around 20%

COC(=O)[C@H](CC(C)C)NC(=O)[C@H]1CCCN1C(=O)[C@H](CC(C)C)NC(=O)OC(C)(C)C [Peptide P1, Boc-L-^DP-L-OMe] (HELM PEPTIDE1{[CC(C)(C)OC(=O)[*:2]].L.[dP].L.[CO[*:1]]}$$$$V2.0)
IC50 rank among the five peptides ([1]; HT-29, MTT, Fig. 1 legend): best IC50 value
% inhibition (peptide screening) ([1]; lowest concentration 1 µg/mL): 23.22%
change of NIH3T3 cells due to treatment [2]: do not show much change
PI/AO fluorescent staining, observed state of the cells (HT-29 cells): a number of apoptotic cells as well and very few dead cells
PI/AO fluorescent staining, observed state of the cells (MDA MB-231 cells): a number of apoptotic cells as well and very few dead cells
% inhibition ([3]; MDA MB 231, 1 µg/mL): 29.98%
% inhibition ([3]; MDA MB 231, 5 µg/mL): 37.11%
% inhibition ([3]; MDA MB 231, 10 µg/mL): 60.69%
inhibition of up to (concentration not given) ([3]; MDA MB-231, MTT, Fig. 5b/5d, concentration not given): around 29%
% inhibition ([4]; HT 29, 1 µg/mL): ~ 19% and 19.69%
% inhibition ([4]; HT 29, 5 µg/mL): 22.05%
% inhibition ([4]; HT 29, 10 µg/mL): 27.72%
